Laboratory results as given in patent US5763435A, “Sulfate conjugates of ursodeoxycholic acid, and their beneficial use in inflammatory disorders” (priority 1995, dated 1998).

Tests used:
[1] = tested on: Principal Bile Acids in Liver; assay: Bile acid composition of liver tissue after oral administration (GC-MS); assay type: in vivo, Sprague-Dawley rats; settings: for Chenodeoxycholic acid concentration in liver / Chenodeoxycholic acid percent of hepatic bile acids / Cholic acid concentration in liver / Cholic acid percent of hepatic bile acids / Deoxycholic acid concentration in liver / Deoxycholic acid percent of hepatic bile acids / Lithocholic acid concentration in liver / Lithocholic acid percent of hepatic bile acids / Total bile acid concentration in liver / UDCA percent of hepatic bile acids / Δ^22-UDCA concentration in liver / Δ^22-UDCA percent of hepatic bile acids / Δ^22-β-Muricholic acid concentration in liver / Δ^22-β-Muricholic acid percent of hepatic bile acids / Δ^22-ω-Muricholic acid concentration in liver / Δ^22-ω-Muricholic acid percent of hepatic bile acids / α-Muricholic acid concentration in liver / α-Muricholic acid percent of hepatic bile acids / β-Muricholic acid concentration in liver / β-Muricholic acid percent of hepatic bile acids / ω-Muricholic acid concentration in liver / ω-Muricholic acid percent of hepatic bile acids: oral gavage 250 mg/day, 4 days; for Hepatic UDCA concentration change (in words): oral, vs control
Description: Male Sprague-Dawley rats (Harlan Sprague-Dawley, Inc., Indianapolis, Ind.), weighing 210-290 g, were maintained on a 12-hour light-dark cycle and fed standard laboratory chow ad libitum for 3 days. The animals were then transferred to metabolic cages in which they were housed individually and fed the same diet. UDCA, UDCA 3-sulfate, UDCA 7-sulfate, and UDCA 3,7-disulfate were administered by gavage at a dose of 250 mg/day for 4 consecutive days. Each group comprised 3-6 rats. Body weights of the animals were measured each day. On day 5, the animals were killed by exsanguination under ether anesthesia. Plasma was collected and frozen at -20° C. The liver was removed, rinsed in normal saline, and flash-frozen in liquid nitrogen. Urine and feces were collected every 24 hours and frozen at -20° C. All animals received humane care in compliance with the "Guide for the Care and Use of Laboratory Animals" prepared by the National Academy of Sciences (National Institutes of Health publication no. 86-23, revised in 1985).
Samples of liver (100 mg) were ground to a fine paste, and bile acids were extracted by reflux and passage through a column of Lipidex 1000 as described above for intestinal contents and feces. Group separation of bile acids, according to their mode of conjugation was achieved by lipophilic anion-exchange chromatography. Extracts from each animal were pooled, and bile acids and their conjugates were separated using Lipidex-DEAP and stepwise elution of the gel bed with the following buffers: 0.1 mol/L acetic acid in 72% ethanol (unconjugated bile acids); 0.3 mol/L acetic acid in 72% ethanol, pH 5.0 (glycine conjugates); 0.15 mol/L acetic acid in 72% ethanol, pH 6.5 (taurine conjugates); and 0.3 mol/L acetic acid in 72% ethanol, pH 9.6 (sulfate conjugates). After evaporation of the buffers, sulfated bile acids were solvolyzed, whereas amidated conjugates were hydrolyzed with 50 U of cholylglycine hydrolase (Sigma Chemical Co.) in 2.5 mL of 0.2 mol/L phosphate buffer, pH 5.6, at 37° C. overnight. The resulting unconjugated bile acids were isolated on Lipidex-DEAP, and the methyl ester-trimethylsilyl ether derivatives were prepared as described above.
GC-MS analysis was performed using a Finnigan 4635 mass spectrometer (Finnigan Inc., San Jose, Calif.) that housed an identical gas chromatography column operated under the same conditions. Electron ionization (70 eV) mass spectra were recorded over the mass range of 50-800 daltons by repetitive scanning of the eluting components. Identification of bile acids was made on the basis of the gas chromatography retention index relative to a homologous series of n-alkanes, referred to as the methylene unit value, and the mass spectrum compared with authentic standards. Quantification of bile acids was achieved using gas chromatography by comparing the peak height response of the individual bile acids with the peak height response obtained from the internal standard.
Data are expressed as mean±SEM or as mean values of all animals when extracts were pooled before analysis. Results from different groups were compared using paired and unpaired two-tailed Student's t-test. P values of <0.05 were considered statistically significant.

[2] = Urinary excretion after i.v. infusion; assay type: in vivo, Sprague-Dawley rats; settings: rat, urine, iv, read-out: Proportion of administered dose appearing in urine
Description: Adult male Sprague-Dawley rats (body weight 200-230 g) were anesthetized by an intraperitoneal injection of pentobarbital (Nembutal, 7.5 mg/100 g body weight), and maintained under sedation by additional doses. The right jugular vein and the common bile duct were cannulated using PE-50 polyethylene tubing (Clay-Adams, Parsippany, N.J.). Body temperature was maintained throughout the experiment at 37° C. using a rectal probe and a thermostatically controlled heating pad (Harvard Apparatus Co., Inc., Millis, Mass.). Saline was infused at a rate of 1.0 ml/h using a Harvard pump (Harvard Apparatus Co., Inc.) into the jugular vein for a control period of 2h. After collecting two 10 minute bile samples for base-line analysis, the bile acids were individually infused intravenously (i.v.) for 30 minutes in stepwise increasing doses (0.5, 1.0, and 2.0 μmol/min/100 g body weight). Bile acid solutions were prepared in 3% human albumin in 0.45% saline. Six animals were used for each experiment and bile was collected every 10 minutes into preweighed tubes. At the end of the experiment, blood was obtained by cardiac puncture, and urine was obtained by aspiration of the bladder. All biological specimens were stored at -20° C. This animal study protocol (#1 B 10044) was approved by the Bioethics committee of the Children's Hospital Medical Center (Cincinnati, Ohio).
Negative ion fast atom bombardment-mass spectrometry (FAB-MS) spectra of bile samples, urine and synthetic compounds were obtained after placing the equivalent of approximately 1 μl of the original bile extract, 10 μl-50 μl of the urine extract and jig quantities of synthetic bile acids dissolved in methanol onto a small drop of a glycerol matrix spotted on a copper target of the FAB probe. This probe was introduced directly into the ion source of the mass spectrometer and a beam of fast atoms of either xenon generated with a saddle field atom gun (ion Tech, Teddington, Middlesex, UK) operated at 8 kV and 20 μA, or cesium generated from cesium iodine (35 kV), was fired at the target containing the sample. Negative ion spectra were obtained over the mass range of 50-1000 Da/e.
Urine collections from the six animals were pooled and the bile acids were extracted by liquid-solid extraction using a Bond Elut-C18 cartridge and bile acids were analyzed by GC-MS after solvolysis, hydrolysis and derivatization.

| SMILES | Chenodeoxycholic acid concentration in liver [1] | Chenodeoxycholic acid percent of hepatic bile acids [1] | Cholic acid concentration in liver [1] | Cholic acid percent of hepatic bile acids [1] | Deoxycholic acid concentration in liver [1] | Deoxycholic acid percent of hepatic bile acids [1] | Lithocholic acid concentration in liver [1] | Lithocholic acid percent of hepatic bile acids [1] | Total bile acid concentration in liver [1] | UDCA percent of hepatic bile acids [1] | Δ^22-UDCA concentration in liver [1] | Δ^22-UDCA percent of hepatic bile acids [1] | Δ^22-β-Muricholic acid concentration in liver [1] | Δ^22-β-Muricholic acid percent of hepatic bile acids [1] | Δ^22-ω-Muricholic acid concentration in liver [1] | Δ^22-ω-Muricholic acid percent of hepatic bile acids [1] | α-Muricholic acid concentration in liver [1] | α-Muricholic acid percent of hepatic bile acids [1] | β-Muricholic acid concentration in liver [1] | β-Muricholic acid percent of hepatic bile acids [1] | other results |
| --- | --- | --- | --- | --- | --- | --- | --- | --- | --- | --- | --- | --- | --- | --- | --- | --- | --- | --- | --- | --- | --- |
| C[C@H](CCC(=O)O)[C@H]1CC[C@H]2[C@@H]3[C@@H](OS(=O)(=O)O)C[C@@H]4C[C@H](O)CC[C@]4(C)[C@H]3CC[C@]12C [UDCA-7S, ursodeoxycholic acid 7-sulfate] | 6.4 nmol/g | 1.9% | 186.1 nmol/g | 56.0% | 14.9 nmol/g | 4.5% | 3.2 nmol/g | 1.0% | 332.3 nmol/g | 1.8% | 8.7 nmol/g | 2.6% | 59.8 nmol/g | 18.0% | 6.6 nmol/g | 2.0% | 0.4 nmol/g | 0.1% | 36.1 nmol/g | 10.8% | ω-Muricholic acid concentration in liver [1]: 4.0 nmol/g; ω-Muricholic acid percent of hepatic bile acids [1]: 1.2%; Hepatic UDCA concentration change (in words) [1]: low compared with the control animals; dose excreted [2]: 0.9% |
| C[C@H](CCC(=O)O)[C@H]1CC[C@H]2[C@@H]3[C@@H](OS(=O)(=O)O)C[C@@H]4C[C@H](OS(=O)(=O)O)CC[C@]4(C)[C@H]3CC[C@]12C [UDCA-DS, ursodeoxycholic acid 3,7-disulfate] | 0.7 nmol/g | 0.2% | 163.2 nmol/g | 57.7% | 17.3 nmol/g | 6.1% | 2.2 nmol/g | 0.8% | 282.7 nmol/g | 1.7% | 5.8 nmol/g | 2.0% | 23.0 nmol/g | 8.1% | 4.0 nmol/g | 1.4% | 6.5 nmol/g | 2.3% | 50.1 nmol/g | 17.7% | ω-Muricholic acid concentration in liver [1]: 5.0 nmol/g; ω-Muricholic acid percent of hepatic bile acids [1]: 1.8%; Hepatic UDCA concentration change (in words) [1]: low compared with the control animals; dose excreted [2]: 2.2% |
